# Measurements as given in patent publication US8420777B2, “Compounds that inhibit Hsp90 protein-protein interactions with IAP proteins” (University of Massachusetts, priority 2004, dated 2013).
# How the values were obtained:
# [1] = system: HeLa cells; assay: Multiparametric flow cytometry of caspase activity and membrane integrity; format: cell-based, Human; conditions: increasing concentrations, 24 hours
# Method: (§1) For multiparametric analysis of caspase-dependent cell death and loss of plasma membrane integrity, HeLa, MCF-7, or genetically engineered HCT116 cells (obtained from ATCC) were loaded with increasing concentrations of cell permeable control scrambled peptide or the Survivin peptide, harvested after culturing for 24 hours at 37° C., and analyzed for cell viability (propidium iodide, red channel) and active caspase-3 activity (CaspaTag™ from Intergen, Purchase, N.Y., green channel) by flow cytometry.
# Cells were harvested after 24 hours of incubation with peptide and simultaneously analyzed for caspase activity by DEVDase activity (X-axis, green fluorescence) and cell membrane integrity by propidium iodide staining (Y-axis, red fluorescence). Cells in the upper right quadrant correspond to the population with elevated caspase activity and loss of cell membrane integrity (apoptotic).
# [2] = system: breast carcinoma MCF-7 cells; assay: as above; format: cell-based; conditions: MCF-7 (wild type p53), 24 hours
# Method: as §1
# Experiments were performed as in Example 13, except that breast carcinoma MCF-7 cells (wild type p53) were analyzed by multiparametric flow cytometry of induction of caspase activity and loss of cell membrane integrity after intracellular loading with cell permeable Control (SEQ ID NO:25) or Survivin (SEQ ID NO:19) cell permeable peptide.
# [3] = system: HCT116 colorectal cancer cells (p53+/+ or p53-/-); assay: as above; format: cell-based; set-up: dose or concentration left out as unconfirmed; conditions: 24 hours, p53+/+ versus p53-/-
# Method: as §1
# In these experiments, HCT116 colorectal cancer cells carrying wild type p53 (p53^+/+) or homozygously inactivated p53 (p53^−/−) (Bunz et al., Science, 282:1497-1501 (1998))) were incubated with […] of cell permeable Control (SEQ ID NO:25) or Survivin (SEQ ID NO:19) cell permeable peptide, harvested after 24 hours and analyzed by multiparametric flow cytometry of induction of caspase activity and loss of cell membrane integrity.
# [4] = system: breast carcinoma MCF-7 cells; assay: Soft agar colony formation (anchorage-independent growth); format: cell-based; conditions: 75 or 150 μm in growth media, relative to Control scrambled peptide
# Method: For soft agar colony formation, 2×10^4 adapted breast carcinoma MCF-7 cells were suspended in 1.5 ml of DMEM supplemented with 10% FBS and 0.35% bactoagar (Becton Dickinson, Sparks, Md.) in 36 mm tissue culture plates containing 1.5 ml of 0.75% agarose in growth medium at the bottom layer. The plates were incubated at 37° C. in a 5% CO2 incubator for 2-5 weeks. The colonies were stained with 0.005% crystal violet (Sigma) and counted using a dissecting microscope under high power field.
# The two upper plates shown in FIG. 19 had no visible cell colonies.
# [5] = system: DU145, PC3, HeLa tumor cell lines; assay: MTT colorimetric viability assay, tumor cell lines; format: cell-based; conditions: increasing concentrations, 24 hours
# Method: FIGS. 22A and 22B compares the effect of P31 (SEQ ID NO:19) or P33 (SEQ ID NO:25) on apoptosis of tumor cell lines (FIG. 22A) and normal cell lines (FIG. 22B). The following tumor cell lines DU145 (prostate cancer, circles), PC3 (prostate cancer, triangles), or HeLa (cervical carcinoma, squares) were treated with the indicated increasing concentrations of P31 peptide (solid symbols) or control P33 peptide (open symbols), harvested after 24 hours, and analyzed for cell viability using an MTT colorimetric assay. For normal cell types (right panel), HFF (human foreskin fibroblasts, squares), HGF (human fibroblasts, triangles) or WS-1 (human epithelial cells, circles) were treated with P31 (solid symbols) or control scrambled peptide P33, harvested after 24 hours and analyzed for overall cell viability by MTT colorimetric assay. All cell lines were from ATCC.
# [6] = system: HeLa cells; assay: Annexin V labeling and propidium iodide multiparametric flow cytometry; format: cell-based, Human; conditions: increasing concentrations, eight hour incubation, 37° C.
# Method: HeLa cell cultures were treated with the indicated increasing concentrations of P31 (Survivin) or P33 (Control; SEQ ID NO:25) peptides, harvested after an eight hour incubation at 37° C., and analyzed for multiparametric flow cytometry of Annexin V labeling (X-axis, a marker of apoptosis) and propidium iodide staining (Y-axis, a marker of cell death).
# [7] = system: PC3 cells; assay: Immunoblotting of Hsp90 client proteins; format: cell-based; conditions: 75 and 150 μM, 8 hours
# Method: Survivin affects the stability and function of Hsp90 client proteins in tumor cells. PC3 cells were untreated or exposed to 75 and 150 μM concentrations of the survivin peptide (SEQ ID NO:19) (or control scrambled peptide; SEQ ID NO:25) for 8 hours and processed for immunoblotting against the Hsp90 client proteins survivin, AKT, and CDK-6. […] Conversely, the levels of Hsp90, Hsp70, and PCNA were not affected (FIG. 26A).
# [8] = system: telomerase; assay: TRAP assay on Hsp90 immunoprecipitates; format: cell-based; conditions: PC3 cells treated before immunoprecipitation
# Method: Survivin peptide treated PC3 cells were also tested for telomerase activity, which requires Hsp90 (Holt et al., Genes Dev., 13:817-26 (1999)). Cells were treated as in above, immunoprecipitated with an antibody to Hsp90, and telomerase activity was determined by TRAP assay (Kim and Wu, Nucleic Acids Res., 25:2595-7 (1997)) of the immunoprecipitates. Telomerase activity is indicated by a ladder of telomere products.
# [9] = system: HL-60 and THP-1 AML cell lines; assay: MTT cell viability, short versus full length peptide; format: cell-based; conditions: 4×10^5 cells
# Method: FIGS. 29B-29D are graphs depicting killing of AML cells by Survivin peptides. FIG. 29B depicts survivin peptide activity in HL-60 cells, measured by Trypan blue exclusion. FIGS. 29C and 29D depict killing, as measured using MTT, of HL-60 (FIG. 29C) or THP-1 (FIG. 29D) cells by full length Survivin peptide (SEQ ID NO:19), Survivin peptide K79-G83 (SEQ ID NO:20), or scrambled peptide (SEQ ID NO:25 and SEQ ID NO:28).
# The activity of a shorter Survivin peptide was also tested in an AML cell line. A shorter cell permeable Survivin peptide was synthesized by fusing the third α-helix of the Antennapedia carrier sequence to the amino-terminus of the Survivin peptide sequence K79-G83 (SEQ ID NO:20). […] The scrambled control peptide ([…]; SEQ ID NO:28) was ineffective (FIGS. 29C, D). For these experiments a higher number of cells was used (4×10^5) to produce a 50% killing efficiency by full length survivin peptide.
# [10] = target: T1, survivin-Hsp90 (Homo sapiens, UniProt P07900, S63T); assay: ELISA inhibition of recombinant survivin binding to Hsp90
# T1 construct: GST-Hsp90 (amino acids 1-732); GST (N); made in house; host or cells: E. coli
# From the text: FIG. 31 is a graph depicting Hsp90 binding by Survivin peptides, measured by ELISA. Data are the mean±S.D. of two independent experiments.
sequence,measurement,setting,value
RQIKIWFQNRRMKWKKKHSSGCAFL (Synthetically generated peptide) [P31],cell death (caspase activity and loss of plasma membrane integrity),[1],induces cell death more efficiently than scrambled control peptide
same,caspase-dependent apoptosis,[2],induces apoptosis
same,accumulation of cells with high caspase activity and loss of plasma membrane integrity,[3],indistinguishable between p53^+/+ and p53^−/− HCT116 cells
same,anchorage-independent cell growth and survival,[4],completely inhibited
same,cell death in cancer cell lines (MTT),[5],effectively induced cell death in all three cancer cell lines
same,induction of apoptosis (Annexin V / propidium iodide),[6],induced apoptosis in a dose-dependent manner
same,"Hsp90 client proteins (survivin, Akt, CDK-4, CDK-6)",[7],caused disappearance of multiple Hsp90 client proteins
same,"levels of Hsp90, Hsp70, and PCNA",[7],not affected
same,telomerase activity,[8],abrogated telomerase activity
same,killing efficiency,[9],50%
same,inhibition of binding of recombinant survivin to Hsp90,[10],inhibited the binding of recombinant survivin to Hsp90 in a dose-dependent manner
